Laboratory results published in the supplement of paper PMC11061612.

What was measured:
Carboplatin = compound: C1CC(C1)(C(=O)[O-])C(=O)[O-].N.N.[Pt+2] [Carboplatin]; details: max 10 µM
How it was run: (§1)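 After 24 hours at 37°C and 5% CO2 in 1536-well plates holding 7.5 μl of DMEM/F12 or RPMI with 10% FBS, cancer cell lines were dosed for 72 hours, with final DMSO typically 0.2%. Viability came from CellTiter-Glo 2.0 luminescence, scaled between the means of blank wells and DMSO wells. A non-linear mixed effects model fitted a two-parameter logistic curve to each dose response to give the single-agent IC50.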

AZD5363 = compound: C1CN(CCC1(C(=O)N[C@@H](CCO)C2=CC=C(C=C2)Cl)N)C3=NC=NC4=C3C=CN4 [AZD5363]; details: max 10 µM
How it was run: as §1

AZD1775 = compound: C=CCn1c(=O)c2cnc(Nc3ccc(N4CCN(C)CC4)cc3)nc2n1-c1cccc(C(C)(C)O)n1 [AZD1775]; details: max 3 µM
How it was run: as §1

Trametinib = compound: CC(=O)Nc1cccc(-n2c(=O)n(C3CC3)c(=O)c3c(Nc4ccc(I)cc4F)n(C)c(=O)c(C)c32)c1 [Trametinib]; details: max 1 µM
How it was run: as §1

Paclitaxel = compound: CC(=O)O[C@H]1C(=O)[C@@]2(C)[C@H]([C@H](OC(=O)c3ccccc3)[C@]3(O)C[C@H](OC(=O)[C@H](O)[C@@H](NC(=O)c4ccccc4)c4ccccc4)C(C)=C1C3(C)C)[C@]1(OC(C)=O)CO[C@@H]1C[C@@H]2O [Paclitaxel]; details: max 3 µM
How it was run: as §1

Palbociclib = compound: CC(=O)c1c(C)c2cnc(Nc3ccc(N4CCNCC4)cn3)nc2n(C2CCCC2)c1=O [Palbociclib]; details: max 10 µM
How it was run: as §1

AZD1390 = compound: CC(C)n1c(=O)n(C)c2cnc3cc(F)c(-c4ccc(OCCCN5CCCCC5)nc4)cc3c21 [AZD1390]; details: max 0.3 µM
How it was run: as §1

Venetoclax = compound: CC1(C)CCC(CN2CCN(c3ccc(C(=O)NS(=O)(=O)c4ccc(NCC5CCOCC5)c([N+](=O)[O-])c4)c(Oc4cnc5[nH]ccc5c4)c3)CC2)=C(c2ccc(Cl)cc2)C1 [Venetoclax]; details: max 1 µM
How it was run: as §1

Dasatinib = compound: CC1=C(C(=CC=C1)Cl)NC(=O)C2=CN=C(S2)NC3=CC(=NC(=N3)C)N4CCN(CC4)CCO [Dasatinib]; details: max 2 µM
How it was run: as §1

SG3199 = compound: CC1=CN2[C@@H](C1)C=NC3=CC(=C(C=C3C2=O)OC)OCCCCCOC4=C(C=C5C(=C4)N=C[C@@H]6CC(=CN6C5=O)C)OC [SG3199]; details: max 0.001 µM
How it was run: as §1

AZD2811 = compound: CCN(CCO)CCCOc1ccc2c(Nc3cc(CC(=O)Nc4cccc(F)c4)[nH]n3)ncnc2c1 [AZD2811]; details: max 1 µM
How it was run: as §1

SN-38 = compound: CCc1c2c(nc3ccc(O)cc13)-c1cc3c(c(=O)n1C2)COC(=O)[C@]3(O)CC [SN-38]; details: max 0.3 µM
How it was run: as §1

AZD0156 = compound: CN(C)CCCOc1ccc(-c2ccc3ncc4c(c3c2)n(C2CCOCC2)c(=O)n4C)cn1 [AZD0156]; details: max 3 µM
How it was run: as §1

AZD4320 = compound: CN(CC[C@H](CSC1=CC=CC=C1)NC2=C(C=C(C=C2)S(=O)(=O)NC(=O)C3=CC=C(C=C3)N4CCC(CC4)[C@H](C5=CC=CC=C5C6=CC=C(C=C6)Cl)O)S(=O)(=O)C(F)(F)F)CCO [AZD4320]; details: max 1 µM
How it was run: as §1

Alisertib = compound: COc1cc(Nc2ncc3c(n2)-c2ccc(Cl)cc2C(c2c(F)cccc2OC)=NC3)ccc1C(=O)O [Alisertib]; details: max 10 µM
How it was run: as §1

Etoposide = compound: COc1cc([C@@H]2c3cc4c(cc3[C@@H](O[C@@H]3O[C@@H]5CO[C@@H](C)O[C@H]5[C@H](O)[C@H]3O)[C@H]3COC(=O)[C@H]23)OCO4)cc(OC)c1O [Etoposide]; details: max 10 µM
How it was run: as §1

Gefitinib = compound: COc1cc2ncnc(Nc3ccc(F)c(Cl)c3)c2cc1OCCCN1CCOCC1 [Gefitinib]; details: max 10 µM
How it was run: as §1

Prexasertib = compound: COc1cccc(OCCCN)c1-c1cc(Nc2cnc(C#N)cn2)n[nH]1 [Prexasertib]; details: max 1 µM
How it was run: as §1

Doxorubicin = compound: COc1cccc2c1C(=O)c1c(O)c3c(c(O)c1C2=O)C[C@@](O)(C(=O)CO)C[C@@H]3O[C@H]1C[C@H](N)[C@H](O)[C@H](C)O1 [Doxorubicin]; details: max 1 µM
How it was run: as §1

AZD5153 = compound: COc1nnc2ccc(N3CCC(c4ccc(OCCN5CCN(C)C(=O)[C@H]5C)cc4)CC3)nn12 [AZD5153]; details: max 1 µM
How it was run: as §1

Lapatinib = compound: CS(=O)(=O)CCNCc1ccc(-c2ccc3ncnc(Nc4ccc(OCc5cccc(F)c5)c(Cl)c4)c3c2)o1 [Lapatinib]; details: max 10 µM
How it was run: as §1

AZD8186 = compound: C[C@@H](Nc1cc(F)cc(F)c1)c1cc(C(=O)N(C)C)cc2c(=O)cc(N3CCOCC3)oc12 [AZD8186]; details: max 10 µM
How it was run: as §1

Crizotinib = compound: C[C@@H](Oc1cc(-c2cnn(C3CCNCC3)c2)cnc1N)c1c(Cl)ccc(F)c1Cl [Crizotinib]; details: max 10 µM
How it was run: as §1

Savolitinib = compound: C[C@@H](c1ccc2nccn2c1)n1nnc2ncc(-c3cnn(C)c3)nc21 [Savolitinib]; details: max 1 µM
How it was run: as §1

AZD6738 = compound: C[C@@H]1COCCN1C2=NC(=NC(=C2)C3(CC3)[S@](=N)(=O)C)C4=C5C=CNC5=NC=C4 [AZD6738]; details: max 10 µM
How it was run: as §1

AZD5991 = compound: Cc1c2c(nn1C)CSCc1cc(n(C)n1)CSc1cc(c3ccccc3c1)OCCCc1c(C(=O)O)n(C)c3c-2c(Cl)ccc13 [AZD5991]; details: max 1 µM
How it was run: as §1

AZD7648 = compound: Cc1cc2ncnn2cc1Nc1ncc2c(n1)n(C1CCOCC1)c(=O)n2C [AZD7648]; details: max 10 µM
How it was run: as §1

Taselisib = compound: Cc1nc(-c2cn3c(n2)-c2ccc(-c4cnn(C(C)(C)C(N)=O)c4)cc2OCC3)n(C(C)C)n1 [Taselisib]; details: max 10 µM
How it was run: as §1

Selumetinib = compound: Cn1cnc2c(F)c(Nc3ccc(Br)cc3Cl)c(C(=O)NOCCO)cc21 [Selumetinib]; details: max 10 µM
How it was run: as §1

SRA737 = compound: N#Cc1cnc(Nc2cc(NC[C@H]3CNCCO3)c(C(F)(F)F)cn2)cn1 [SRA737]; details: max 10 µM
How it was run: as §1

MK-2206 = compound: NC1(c2ccc(-c3nc4ccn5c(=O)[nH]nc5c4cc3-c3ccccc3)cc2)CCC1 [MK-2206]; details: max 10 µM
How it was run: as §1

Gemcitabine = compound: Nc1ccn([C@@H]2O[C@H](CO)[C@@H](O)C2(F)F)c(=O)n1 [Gemcitabine]; details: max 0.3 µM
How it was run: as §1

[1] = compound: O=C(Nc1ccc2[nH]nc(-c3ccncc3)c2c1)[C@@H]1CCN(CC(=O)N2CCN(c3ccc(-c4ncccn4)cc3)CC2)C1; details: max 5 µM
How it was run: as §1

Olaparib = compound: O=C(c1cc(Cc2n[nH]c(=O)c3ccccc23)ccc1F)N1CCN(C(=O)C2CC2)CC1 [Olaparib]; details: max 10 µM
How it was run: as §1

5-Fluorouracil = compound: O=c1[nH]cc(F)c(=O)[nH]1 [5-Fluorouracil]; details: max 20 µM
How it was run: as §1

| Cell Line | IC50, cell viability 72 h (Carboplatin) | IC50, cell viability 72 h (AZD5363) | IC50, cell viability 72 h (AZD1775) | IC50, cell viability 72 h (Trametinib) | IC50, cell viability 72 h (Paclitaxel) | IC50, cell viability 72 h (Palbociclib) | IC50, cell viability 72 h (AZD1390) | IC50, cell viability 72 h (Venetoclax) | IC50, cell viability 72 h (Dasatinib) | IC50, cell viability 72 h (SG3199) | IC50, cell viability 72 h (AZD2811) | IC50, cell viability 72 h (SN-38) | IC50, cell viability 72 h (AZD0156) | IC50, cell viability 72 h (AZD4320) | IC50, cell viability 72 h (Alisertib) | IC50, cell viability 72 h (Etoposide) | IC50, cell viability 72 h (Gefitinib) | IC50, cell viability 72 h (Prexasertib) | IC50, cell viability 72 h (Doxorubicin) | IC50, cell viability 72 h (AZD5153) | IC50, cell viability 72 h (Lapatinib) | IC50, cell viability 72 h (AZD8186) | IC50, cell viability 72 h (Crizotinib) | IC50, cell viability 72 h (Savolitinib) | IC50, cell viability 72 h (AZD6738) | IC50, cell viability 72 h (AZD5991) | IC50, cell viability 72 h (AZD7648) | IC50, cell viability 72 h (Taselisib) | IC50, cell viability 72 h (Selumetinib) | IC50, cell viability 72 h (SRA737) | IC50, cell viability 72 h (MK-2206) | IC50, cell viability 72 h (Gemcitabine) | IC50, cell viability 72 h [1] | IC50, cell viability 72 h (Olaparib) | IC50, cell viability 72 h (5-Fluorouracil) |
| --- | --- | --- | --- | --- | --- | --- | --- | --- | --- | --- | --- | --- | --- | --- | --- | --- | --- | --- | --- | --- | --- | --- | --- | --- | --- | --- | --- | --- | --- | --- | --- | --- | --- | --- | --- |
| MEG-01 (Chronic Myelogenous Leukemia) | > 10000 nM | > 10000 nM | 292 nM | 38.9 nM | 158 nM | > 10000 nM | > 300 nM | > 1000 nM | < 2 nM | > 1 nM | 776 nM | 74.4 nM | > 3000 nM | 309 nM | 3120 nM | 4890 nM | > 10000 nM | 8.09 nM | 540 nM | 83.2 nM | > 10000 nM | > 10000 nM | 828 nM | > 1000 nM | 812 nM | > 1000 nM | > 10000 nM | > 10000 nM | 3410 nM | 1180 nM | > 10000 nM | 51.4 nM | 1220 nM | > 10000 nM | > 20000 nM |
| DOK (Oral Cavity Carcinoma) | > 10000 nM | 9610 nM | 1260 nM | 328 nM | 5.13 nM | > 10000 nM | > 300 nM | > 1000 nM | 165 nM | > 1 nM | > 1000 nM | 169 nM | > 3000 nM | > 1000 nM | 4510 nM | > 10000 nM | > 10000 nM | > 1000 nM | > 1000 nM | 652 nM | 5760 nM | > 10000 nM | > 10000 nM | > 1000 nM | > 10000 nM | > 1000 nM | > 10000 nM | 253 nM | 3660 nM | > 10000 nM | > 10000 nM | > 300 nM | 633 nM | > 10000 nM | > 20000 nM |
